We go through 19 molecules from patent publication US11040031B2, “Pyrazole derivatives as MALT1 inhibitors” (Janssen Pharmaceutica NV, priority 2018, dated 2021).

Structures are written as SMILES. Where two headings read alike, the source gives them in different places.

The target of test [1] is T1, full-length MALT1 protein (Strep-MALT1(1-824)-His) (Homo sapiens, UniProt Q9UDY8).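 Further: fluorogenic LRSR-AMC substrate cleavage by MALT1, 50 min compound preincubation then 4 h reaction at RT, 11-point dilution from 30 µM, scaled between enzyme-free and untreated enzyme controls.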
T1 sequence (Q9UDY8 1-824): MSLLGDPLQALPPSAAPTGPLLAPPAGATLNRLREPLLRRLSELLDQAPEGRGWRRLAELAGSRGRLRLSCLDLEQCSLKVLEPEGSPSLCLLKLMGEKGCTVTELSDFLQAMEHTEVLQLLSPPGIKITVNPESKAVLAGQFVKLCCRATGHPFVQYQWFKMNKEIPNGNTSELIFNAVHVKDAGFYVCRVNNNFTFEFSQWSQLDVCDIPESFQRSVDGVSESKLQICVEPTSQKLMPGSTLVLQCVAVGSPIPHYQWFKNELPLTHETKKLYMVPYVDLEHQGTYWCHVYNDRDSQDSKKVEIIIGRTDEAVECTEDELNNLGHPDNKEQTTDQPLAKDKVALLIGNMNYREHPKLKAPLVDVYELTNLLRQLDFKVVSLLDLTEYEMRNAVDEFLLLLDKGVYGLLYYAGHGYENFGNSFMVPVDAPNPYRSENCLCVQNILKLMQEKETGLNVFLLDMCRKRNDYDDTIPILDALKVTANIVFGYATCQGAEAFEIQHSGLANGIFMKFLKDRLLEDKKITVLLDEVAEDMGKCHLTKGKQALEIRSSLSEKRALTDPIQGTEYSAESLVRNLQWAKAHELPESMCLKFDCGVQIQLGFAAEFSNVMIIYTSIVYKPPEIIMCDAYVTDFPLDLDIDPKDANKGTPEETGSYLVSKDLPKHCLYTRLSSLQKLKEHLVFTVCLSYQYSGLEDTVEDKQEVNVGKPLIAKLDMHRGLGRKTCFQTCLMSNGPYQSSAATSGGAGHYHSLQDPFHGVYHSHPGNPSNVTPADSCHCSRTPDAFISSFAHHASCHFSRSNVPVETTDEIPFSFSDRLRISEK
The test is described as follows: biochemical.

In test [2] the test system is OCI-Ly3 ABC-DLBCL cell line. The test can be described thus: 4-day proliferation assay OCI-Ly3. The class given is cell-based. As to conditions: Homo sapiens, read-out: Anti-proliferation: OCI-LY-3 IC50. How it is done:
To assess anti-proliferative effects, MALT1 inhibitor test compounds were tested in 4-day proliferation assays using three different DLBCL cell lines.
Cells should be kept between 0.5-2.5 million cells per mL during culturing and cells should be supplemented every 2-3 days with fresh 50 μM beta-mercaptoenthanol. No beta-mercaptoethanol is used during the proliferation assay. OCI-Ly7 cells were propagated in IMDM (ThermoFisher) supplemented with 10% fetal bovine serum (HyClone), 2 mM L-glutamine (Sigma Aldrich) and 50 μg/mL Gentamycin. Cell passage numbers should not exceed 30.
10,000 TMD8, 10,000 OCI-Ly3 or 2,000 OCI-Ly7 cells were seeded in 100 μL media per well and incubated for 4 days at 37° C. and 5% CO2. Cell plating numbers were chosen based on growth curves to ensure linear cell growth. After 4 days of incubation 50 μl CellTiterGLO reagent (Promega) were added to each well and luminescence was measured on the Envision after 10 min of incubation at room temperature.

Test [3] relates to Secretion of IL10 by OCI-LY3 ABC-DLBCL cells. The test can be described thus: Human IL10 Mesoscale assay (OCI-LY3). Format: cell-based. The conditions noted are these: read-out: Human IL10 Mesoscale assay (OCI-LY3). The method in brief: (§1)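 TMD8 or OCI-LY3 ABC-DLBCL cells incubated with compound 24 h at 37° C without beta-mercaptoethanol. Secreted IL6 and IL10 in supernatant quantified by MSD electrochemiluminescence immunoassay; DMSO wells define maximum signal.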

In test [4] the test system is Secretion of IL6 by OCI-LY3 ABC-DLBCL cells. The test can be described thus: Human IL6 Mesoscale assay (OCI-LY3). The class given is cell-based. As to conditions: read-out: Human IL6 Mesoscale assay (OCI-LY3). The method in brief:
as §1

Setting [5] is: 96 h, 10,000 OCI-Ly3 cells per well, 4 days, CellTiterGLO.
[6] abbreviates: OCI-LY3 cells, 24 h incubation, supernatant, MSD V-Plex.

Regarding `N#Cc1cc(NC(=O)c2cnn(-c3ccc(F)cc3Br)c2C(F)(F)F)cnc1-n1nccn1` [Cpd 50, 1-(2-bromo-4-fluorophenyl)-N-(5-cyano-6-(2H-1,2,3-triazol-2-yl)pyridin-3-yl)-5-(trifluoromethyl)-1H-pyrazole-4-carboxamide], the IC50 in test [1] stood at 54 nM; in test [2] (setting [5]), 1070 nM.
With `N#Cc1cc(NC(=O)c2cnn(-c3ccc(F)cc3Cl)c2C(F)(F)F)cnc1-n1nccn1` [Cpd 51, 1-(2-chloro-4-fluorophenyl)-N-(5-cyano-6-(2H-1,2,3-triazol-2-yl)pyridin-3-yl)-5-(trifluoromethyl)-1H-pyrazole-4-carboxamide], the IC50 in test [3] (setting [6]) came out at 71 nM; in test [1] it was 54 nM; in test [4] (setting [6]), 98 nM; in test [2] (setting [5]), 851 nM.
Consider `O=C(Nc1cnc(-n2nccn2)c(Cl)c1)c1cnn(-c2ccnc3c2OCO3)c1C(F)(F)F` [Cpd 52, 1-([1,3]dioxolo[4,5-b]pyridin-7-yl)-N-(5-chloro-6-(2H-1,2,3-triazol-2-yl)pyridin-3-yl)-5-(trifluoromethyl)-1H-pyrazole-4-carboxamide], for which the IC50 worked out at 56 nM in test [3] (setting [6]), 55 nM in test [1], 120 nM in test [4] (setting [6]) and 2400 nM in test [2] (setting [5]).
Regarding `COc1cc(F)ccc1-n1ncc(C(=O)Nc2cnc(-n3nccn3)c(C#N)c2)c1C(F)(F)F` [Cpd 54, N-(5-cyano-6-(2H-1,2,3-triazol-2-yl)pyridin-3-yl)-1-(4-fluoro-2-methoxyphenyl)-5-(trifluoromethyl)-1H-pyrazole-4-carboxamide], the IC50 in test [1] was determined as 89 nM; in test [2] (setting [5]) it was 1620 nM.
The corresponding values for `Cc1ccccc1-n1ncc(C(=O)Nc2cnc(-n3nccn3)c(C#N)c2)c1C(F)(F)F` [Cpd 55, N-(5-cyano-6-(2H-1,2,3-triazol-2-yl)pyridin-3-yl)-1-(o-tolyl)-5-(trifluoromethyl)-1H-pyrazole-4-carboxamide] are 62 nM and 3390 nM.
Turning to `N#Cc1cc(NC(=O)c2cnn(-c3ccnc(N)c3Cl)c2C(F)(F)F)cnc1-n1nccn1` [Cpd 56, 1-(2-amino-3-chloropyridin-4-yl)-N-(5-cyano-6-(2H-1,2,3-triazol-2-yl)pyridin-3-yl)-5-(trifluoromethyl)-1H-pyrazole-4-carboxamide], the IC50 in test [3] (OCI-Ly3, 24 h) came to 363 nM; in test [1] it was 78 nM; in test [4] (OCI-Ly3, 24 h), 389 nM; in test [2] (OCI-Ly3, 96 h), 5010 nM.
Consider `N#Cc1cc(NC(=O)c2cnn(-c3cccc(F)c3Cl)c2C(F)(F)F)cnc1-n1nccn1` [Cpd 61, 1-(2-chloro-3-fluorophenyl)-N-(5-cyano-6-(2H-1,2,3-triazol-2-yl)pyridin-3-yl)-5-(trifluoromethyl)-1H-pyrazole-4-carboxamide], for which the IC50 in test [1] amounted to 78 nM; in test [2] (setting [5]), 1860 nM.
Turning to `Cc1cc(F)ccc1-n1ncc(C(=O)Nc2cnc(-n3nccn3)c(C#N)c2)c1C(F)(F)F` [Cpd 64, N-(5-cyano-6-(2H-1,2,3-triazol-2-yl)pyridin-3-yl)-1-(4-fluoro-2-methylphenyl)-5-(trifluoromethyl)-1H-pyrazole-4-carboxamide], the IC50 in test [1] was 54 nM; in test [2] (setting [5]), 1550 nM.
On to `O=C(Nc1cnc(-n2nccn2)c(Cl)c1)c1cnn(-c2cccc(F)c2Cl)c1C(F)(F)F` [Cpd 82, 1-(2-chloro-3-fluorophenyl)-N-(5-chloro-6-(2H-1,2,3-triazol-2-yl)pyridin-3-yl)-5-(trifluoromethyl)-1H-pyrazole-4-carboxamide], for which the IC50 was found to be 162 nM in test [1] and 3390 nM in test [2] (setting [5]).
Regarding `O=C(Nc1cnc(-n2nccn2)c(Cl)c1)c1cnn(-c2ccc(F)cc2Br)c1C(F)(F)F` [Cpd 83, 1-(2-bromo-4-fluorophenyl)-N-(5-chloro-6-(2H-1,2,3-triazol-2-yl)pyridin-3-yl)-5-(trifluoromethyl)-1H-pyrazole-4-carboxamide], the results for the IC50 in test [1] and in test [2] (setting [5]) were 129 nM and 2240 nM, respectively.
Take `Cc1cc(F)cnc1-n1ncc(C(=O)Nc2cnc(-n3nccn3)c(Cl)c2)c1C(F)(F)F` [Cpd 112, N-(5-chloro-6-(2H-1,2,3-triazol-2-yl)pyridin-3-yl)-1-(5-fluoro-3-methylpyridin-2-yl)-5-(trifluoromethyl)-1H-pyrazole-4-carboxamide]: the IC50 is 457 nM in test [1] and 724 nM in test [2] (OCI-Ly3, 96 h).
On to `O=C(Nc1cnc(-n2nccn2)c(Cl)c1)c1cnn(-c2ccc(F)cc2F)c1C(F)(F)F` [Cpd 117, N-(5-chloro-6-(2H-1,2,3-triazol-2-yl)pyridin-3-yl)-1-(2,4-difluorophenyl)-5-(trifluoromethyl)-1H-pyrazole-4-carboxamide], for which the IC50 in test [1] came out at 288 nM; in test [2] (setting [5]) it was 407 nM.
The corresponding values for `N#Cc1cc(NC(=O)c2cnn(-c3cccc4c3CCNC4)c2C(F)(F)F)cnc1-n1nccn1` [Cpd 129, N-(5-cyano-6-(2H-1,2,3-triazol-2-yl)pyridin-3-yl)-1-(1,2,3,4-tetrahydroisoquinolin-5-yl)-5-(trifluoromethyl)-1H-pyrazole-4-carboxamide] are 2400 nM and 1410 nM.
In the case of `CN1CCCc2cccc(-n3ncc(C(=O)Nc4cnc(-n5nccn5)c(C#N)c4)c3C(F)(F)F)c21` [Cpd 131, N-(5-cyano-6-(2H-1,2,3-triazol-2-yl)pyridin-3-yl)-1-(1-methyl-1,2,3,4-tetrahydroquinolin-8-yl)-5-(trifluoromethyl)-1H-pyrazole-4-carboxamide], the IC50 was found to be 776 nM in test [1] and 19100 nM in test [2] (setting [5]).
Take `O=C1NCc2c1cccc2-n1ncc(C(=O)Nc2cnc(-n3nccn3)c(Cl)c2)c1C(F)(F)F` [Cpd 133, N-(5-chloro-6-(2H-1,2,3-triazol-2-yl)pyridin-3-yl)-1-(1-oxoisoindolin-4-yl)-5-(trifluoromethyl)-1H-pyrazole-4-carboxamide]: the IC50 in test [1] amounted to 155 nM; in test [2] (setting [5]) it was 5500 nM.
For `Cc1ccc(N)nc1-n1ncc(C(=O)Nc2cnc(-n3nccn3)c(Cl)c2)c1C(F)(F)F` [Cpd 185, 1-(6-amino-3-methylpyridin-2-yl)-N-(5-chloro-6-(2H-1,2,3-triazol-2-yl)pyridin-3-yl)-5-(trifluoromethyl)-1H-pyrazole-4-carboxamide], the IC50 in test [3] (setting [6]) was 355 nM; in test [1] it was 331 nM; in test [4] (setting [6]), 490 nM.
In the case of `Cc1cc(-n2nccn2)c(Cl)cc1NC(=O)c1cnn(-c2ccc(F)c(N)n2)c1C(F)(F)F` [Cpd 193, 1-(6-amino-5-fluoropyridin-2-yl)-N-(5-chloro-2-methyl-4-(2H-1,2,3-triazol-2-yl)phenyl)-5-(trifluoromethyl)-1H-pyrazole-4-carboxamide], the figures for the IC50 in test [3] (setting [6]), in test [1] and in test [4] (setting [6]) were 741 nM, 1170 nM and 871 nM, respectively.
`Cc1cc(-n2nccn2)c(C#N)cc1NC(=O)c1cnn(-c2ccc(F)c(N)n2)c1C(F)(F)F` [Cpd 195, 1-(6-amino-5-fluoropyridin-2-yl)-N-(5-cyano-2-methyl-4-(2H-1,2,3-triazol-2-yl)phenyl)-5-(trifluoromethyl)-1H-pyrazole-4-carboxamide]: the IC50 in test [3] (OCI-Ly3, 24 h) worked out at 1860 nM; in test [1], 1200 nM; in test [4] (OCI-Ly3, 24 h), 5370 nM.
For the molecule `Cc1nc(-n2nccn2)c(C#N)cc1NC(=O)c1cnn(-c2ccc(Cl)c(N)n2)c1C(F)(F)F` [Cpd 200, 1-(6-amino-5-chloropyridin-2-yl)-N-(5-cyano-2-methyl-6-(2H-1,2,3-triazol-2-yl)pyridin-3-yl)-5-(trifluoromethyl)-1H-pyrazole-4-carboxamide], the IC50 in test [3] (setting [6]) came to 245 nM; in test [1], 275 nM; in test [4] (setting [6]), 794 nM.
